Assay results from US9708318B2, “Bicyclic heterocycles as FGFR4 inhibitors” (Incyte Corporation, priority 2015, dated 2017).
Read-outs that look alike come from different tables or passages of the source.

Legend:
FGFR3 enzyme = FGFR3 enzyme (Homo sapiens (Human), UniProt P22607); assay: FGFR Enzymatic Assay (FRET peptide phosphorylation), FGFR3; assay type: biochemical; settings: for FGFR1/FGFR3 IC50 ratio / FGFR4/FGFR3 IC50 ratio: FGFR3 selectivity; for IC50: read-out: FGFR3 IC50
Procedure: (§1) The inhibitor potency of the exemplified compounds was measured in an enzyme assay that measures peptide phosphorylation using FRET measurements to detect product formation. Inhibitors were serially diluted in DMSO and a volume of 0.5 μL was transferred to the wells of a 384-well plate.
(§2) GraphPad prism3 was used to analyze the data.

FGFR1 = FGFR1 (Homo sapiens (Human), UniProt P11362); assay: FGFR Enzymatic Assay (FRET peptide phosphorylation), FGFR1
FGFR4 = FGFR4 (Homo sapiens (Human), UniProt P22455); assay: FGFR Enzymatic Assay (FRET peptide phosphorylation), FGFR4; assay type: biochemical; settings: for FGFR1/FGFR4 IC50 ratio / FGFR2/FGFR4 IC50 ratio / FGFR3/FGFR4 IC50 ratio: FGFR4 selectivity
Procedure: as §1
(§3) The enzymes were purchased from Millipore or Invitrogen.
as §2

FGFR2 = FGFR2 (Homo sapiens (Human), UniProt P21802); assay: FGFR Enzymatic Assay (FRET peptide phosphorylation), FGFR2; assay type: biochemical
Procedure: as §1, §3, §2

[1] = FGFR1 IC50 (nM), pre-incubated for 4 hours
[2] = pre-incubated for 5 to 10 minutes
[3] = read-out: FGFR1 IC50, pre-incubated for 5 to 10 minutes
[4] = read-out: FGFR1 IC50, pre-incubated for 4 hours

FGFR1, sequence (P11362 22-822): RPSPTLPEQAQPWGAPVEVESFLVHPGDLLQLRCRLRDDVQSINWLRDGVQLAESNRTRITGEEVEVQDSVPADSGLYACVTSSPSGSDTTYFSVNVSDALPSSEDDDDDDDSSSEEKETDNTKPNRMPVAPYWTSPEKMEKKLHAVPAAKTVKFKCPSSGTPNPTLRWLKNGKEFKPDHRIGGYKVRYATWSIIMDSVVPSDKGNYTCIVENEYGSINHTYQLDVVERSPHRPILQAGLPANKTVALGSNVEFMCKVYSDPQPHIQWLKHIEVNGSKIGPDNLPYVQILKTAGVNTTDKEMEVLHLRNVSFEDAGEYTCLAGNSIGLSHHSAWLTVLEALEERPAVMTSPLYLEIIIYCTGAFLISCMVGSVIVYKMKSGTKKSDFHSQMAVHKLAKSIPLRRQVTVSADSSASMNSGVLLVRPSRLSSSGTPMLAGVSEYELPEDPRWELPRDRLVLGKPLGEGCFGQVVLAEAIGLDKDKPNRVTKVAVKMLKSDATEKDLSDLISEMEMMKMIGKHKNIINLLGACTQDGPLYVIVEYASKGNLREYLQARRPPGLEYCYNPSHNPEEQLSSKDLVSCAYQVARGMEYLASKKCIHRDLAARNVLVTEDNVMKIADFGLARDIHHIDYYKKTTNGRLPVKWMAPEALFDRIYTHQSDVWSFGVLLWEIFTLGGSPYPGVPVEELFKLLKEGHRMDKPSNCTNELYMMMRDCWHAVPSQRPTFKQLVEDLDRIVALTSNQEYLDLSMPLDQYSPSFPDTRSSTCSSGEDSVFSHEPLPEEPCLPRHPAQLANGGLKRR
FGFR4, sequence (P22455 22-802): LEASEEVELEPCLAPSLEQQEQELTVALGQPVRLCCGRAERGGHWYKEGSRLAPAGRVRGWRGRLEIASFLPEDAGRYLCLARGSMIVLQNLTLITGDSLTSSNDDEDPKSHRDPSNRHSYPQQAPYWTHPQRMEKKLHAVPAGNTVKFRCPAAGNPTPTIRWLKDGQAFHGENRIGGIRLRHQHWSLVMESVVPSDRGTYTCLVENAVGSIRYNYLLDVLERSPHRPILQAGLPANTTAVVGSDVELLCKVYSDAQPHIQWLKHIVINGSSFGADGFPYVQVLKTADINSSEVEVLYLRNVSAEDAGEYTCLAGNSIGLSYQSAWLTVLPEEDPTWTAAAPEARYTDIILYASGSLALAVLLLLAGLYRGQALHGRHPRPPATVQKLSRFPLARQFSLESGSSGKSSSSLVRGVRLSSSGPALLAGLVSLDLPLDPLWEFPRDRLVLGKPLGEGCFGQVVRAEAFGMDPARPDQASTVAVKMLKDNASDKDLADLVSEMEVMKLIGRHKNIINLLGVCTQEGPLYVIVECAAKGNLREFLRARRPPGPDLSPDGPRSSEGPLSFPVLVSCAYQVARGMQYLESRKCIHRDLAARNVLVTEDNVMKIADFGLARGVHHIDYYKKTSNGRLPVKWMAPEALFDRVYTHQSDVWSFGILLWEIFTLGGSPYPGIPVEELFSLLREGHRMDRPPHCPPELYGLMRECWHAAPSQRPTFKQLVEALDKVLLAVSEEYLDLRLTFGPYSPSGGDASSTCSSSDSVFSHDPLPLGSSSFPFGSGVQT
FGFR3 enzyme, sequence (P22607 23-806): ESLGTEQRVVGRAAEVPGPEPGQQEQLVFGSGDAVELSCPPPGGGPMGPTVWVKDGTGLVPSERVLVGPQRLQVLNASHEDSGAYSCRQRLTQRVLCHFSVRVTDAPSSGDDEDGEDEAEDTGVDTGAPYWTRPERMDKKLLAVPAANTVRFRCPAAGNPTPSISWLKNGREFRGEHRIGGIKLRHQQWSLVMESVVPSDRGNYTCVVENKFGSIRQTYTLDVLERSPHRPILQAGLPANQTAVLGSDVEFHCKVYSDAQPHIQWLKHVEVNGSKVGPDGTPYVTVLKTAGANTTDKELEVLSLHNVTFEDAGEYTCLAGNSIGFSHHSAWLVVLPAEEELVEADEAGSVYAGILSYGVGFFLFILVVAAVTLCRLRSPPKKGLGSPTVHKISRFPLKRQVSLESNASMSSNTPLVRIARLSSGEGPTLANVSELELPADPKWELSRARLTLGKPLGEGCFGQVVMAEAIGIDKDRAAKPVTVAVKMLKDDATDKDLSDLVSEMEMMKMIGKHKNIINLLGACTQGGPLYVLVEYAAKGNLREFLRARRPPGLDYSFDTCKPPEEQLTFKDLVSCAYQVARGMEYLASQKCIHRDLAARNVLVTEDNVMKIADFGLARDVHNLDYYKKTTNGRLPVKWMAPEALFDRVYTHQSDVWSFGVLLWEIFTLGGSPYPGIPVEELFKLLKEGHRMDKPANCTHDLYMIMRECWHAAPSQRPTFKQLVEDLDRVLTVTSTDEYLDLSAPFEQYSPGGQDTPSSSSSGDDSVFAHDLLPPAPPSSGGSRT
FGFR2, sequence (P21802 22-821): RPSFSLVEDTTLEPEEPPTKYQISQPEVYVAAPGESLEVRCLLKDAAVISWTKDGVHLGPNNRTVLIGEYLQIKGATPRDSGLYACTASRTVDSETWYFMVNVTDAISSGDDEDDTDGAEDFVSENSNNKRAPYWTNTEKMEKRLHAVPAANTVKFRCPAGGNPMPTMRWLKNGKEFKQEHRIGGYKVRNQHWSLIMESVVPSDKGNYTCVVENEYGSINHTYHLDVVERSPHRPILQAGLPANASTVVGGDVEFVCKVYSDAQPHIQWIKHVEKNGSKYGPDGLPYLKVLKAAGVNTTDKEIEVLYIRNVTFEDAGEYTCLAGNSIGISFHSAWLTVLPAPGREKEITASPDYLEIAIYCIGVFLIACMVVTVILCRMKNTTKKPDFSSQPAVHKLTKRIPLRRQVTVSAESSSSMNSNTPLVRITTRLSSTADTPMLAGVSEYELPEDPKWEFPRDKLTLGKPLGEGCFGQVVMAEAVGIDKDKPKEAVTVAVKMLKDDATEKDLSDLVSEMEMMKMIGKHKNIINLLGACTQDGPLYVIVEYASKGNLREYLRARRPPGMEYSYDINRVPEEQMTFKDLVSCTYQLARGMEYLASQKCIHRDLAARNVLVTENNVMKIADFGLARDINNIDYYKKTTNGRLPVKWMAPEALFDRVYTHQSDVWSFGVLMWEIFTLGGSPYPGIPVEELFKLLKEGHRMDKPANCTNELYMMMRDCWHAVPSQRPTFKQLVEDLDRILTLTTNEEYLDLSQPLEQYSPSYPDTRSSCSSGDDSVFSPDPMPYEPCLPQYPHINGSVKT

| Structure (SMILES) | FGFR1/FGFR3 IC50 ratio (FGFR3 enzyme; pre-incubated for 4 hours) | FGFR4/FGFR3 IC50 ratio (FGFR3 enzyme; pre-incubated for 4 hours) | IC50 (FGFR3 enzyme; pre-incubated for 4 hours) | IC50 (FGFR1; [1]) | IC50 (FGFR4; pre-incubated for 4 hours) | IC50 (FGFR2; pre-incubated for 4 hours) | IC50 (FGFR3 enzyme; [2]) | IC50 (FGFR1; [3]) | IC50 (FGFR1; [4]) | FGFR1/FGFR4 IC50 ratio (FGFR4; [2]) | FGFR2/FGFR4 IC50 ratio (FGFR4; [2]) | FGFR3/FGFR4 IC50 ratio (FGFR4; [2]) | FGFR1/FGFR4 IC50 ratio (FGFR4; pre-incubated for 4 hours) | FGFR2/FGFR4 IC50 ratio (FGFR4; pre-incubated for 4 hours) | FGFR3/FGFR4 IC50 ratio (FGFR4; pre-incubated for 4 hours) | IC50 (FGFR4; [2]) | IC50 (FGFR2; [2]) |
| --- | --- | --- | --- | --- | --- | --- | --- | --- | --- | --- | --- | --- | --- | --- | --- | --- | --- |
| COc1cc(OC)c(F)c(N2Cc3cnc(-c4cn(C)nc4C)cc3N(c3ccc(C(=O)N(C)C)cc3)C2=O)c1F [Example 113, 4-(3-(2,6-difluoro-3,5-dimethoxyphenyl)-7-(1,3-dimethyl-1H-pyrazol-4-yl)-2-oxo-3,4-dihydropyrido[4,3-d]pyrimidin-1(2H)-yl)-N,N-dimethylbenzamide] | >3 | >5 | 10 to 30 nM | 30 to 200 nM | 30 to 200 nM | < 10 nM | – | – | – | – | – | – | – | – | – | – | – |
| COc1cc(OC)c(F)c(N2Cc3cnc(-c4cn(C)nc4C)cc3N(c3ccc(F)c(F)c3)C2=O)c1F [Example 102, 3-(2,6-difluoro-3,5-dimethoxyphenyl)-1-(3,4-difluorophenyl)-7-(1,3-dimethyl-1H-pyrazol-4-yl)-3,4-dihydropyrido[4,3-d]pyrimidin-2(1H)-one] | >3 | >10 | 10 to 30 nM | 30 to 200 nM | 30 to 200 nM | 10 to 30 nM | – | – | – | – | – | – | – | – | – | – | – |
| COc1cc(OC)c(F)c(N2Cc3cnc(-c4ccc(C#N)nc4)cc3C3(CC3)C2=O)c1F [Example 20, 5-(2′-(2,6-difluoro-3,5-dimethoxyphenyl)-3′-oxo-2′,3′-dihydro-1′H-spiro[cyclopropane-1,4′-[2,7]naphthyridine]-6′-yl)picolinonitrile] | >5 | – | 10 to 30 nM | 30 to 200 nM | 10 to 30 nM | 10 to 30 nM | – | – | – | – | – | – | – | – | – | – | – |
| COc1cc(OC)c(F)c(N2Cc3cnc(-c4cn(C5CCN(CC#N)C5)nc4C)cc3C3(CC3)C2=O)c1F (stereo not shown) [Example 154, 2-(3-(4-(2′-(2,6-difluoro-3,5-dimethoxyphenyl)-3′-oxo-2′,3′-dihydro-1′H-spiro[cyclopropane-1,4′-[2,7]naphthyridine]-6′-yl)-3-methyl-1H-pyrazol-1-yl)pyrrolidin-1-yl)acetonitrile] | >5 | >3 | 10 to 30 nM | 30 to 200 nM | 30 to 200 nM | 10 to 30 nM | – | – | – | – | – | – | – | – | – | – | – |
| CCN1C(=O)N(c2c(F)c(OC)cc(OC)c2F)Cc2cnc(-c3ccccc3)cc21 [Example 22, 3-(2,6-difluoro-3,5-dimethoxyphenyl)-1-ethyl-7-phenyl-3,4-dihydropyrido[4,3-d]pyrimidin-2(1H)-one] | >5 | – | 10 to 30 nM | 30 to 200 nM | 10 to 30 nM | 10 to 30 nM | – | – | – | – | – | – | – | – | – | – | – |
| COc1cc(OC)c(F)c(N2Cc3cnc(-c4cncc(Cl)c4)cc3C3(CC3)C2=O)c1F [Example 11, 6′-(5-chloropyridin-3-yl)-2′-(2,6-difluoro-3,5-dimethoxyphenyl)-1′H-spiro[cyclopropane-1,4′-[2,7]naphthyridin]-3′(2′H)-one] | >1 | – | > 200 nM | – | 10 to 30 nM | > 200 nM | 30 to 200 nM | > 200 nM | > 200 nM | >50 | >20 | >25 | >25 | >25 | >10 | 10 to 30 nM | > 200 nM |
| COc1cc(OC)c(F)c(N2Cc3cnc(-c4cncc(CN5CCOCC5)c4)cc3C3(CC3)C2=O)c1F [Example 16, 2′-(2,6-difluoro-3,5-dimethoxyphenyl)-6′-(5-(morpholinomethyl)pyridin-3-yl)-1′H-spiro[cyclopropane-1,4′-[2,7]naphthyridin]-3′(2′H)-one] | >1 | – | 30 to 200 nM | – | < 10 nM | 30 to 200 nM | 30 to 200 nM | > 200 nM | > 200 nM | >25 | >10 | >10 | >50 | >25 | >10 | < 10 nM | 30 to 200 nM |
| COc1cc(OC)c(F)c(N2Cc3cnc(-c4cn(C)nc4C)cc3N(c3cncnc3)C2=O)c1F [Example 61, 3-(2,6-difluoro-3,5-dimethoxyphenyl)-7-(1,3-dimethyl-1H-pyrazol-4-yl)-1-(pyrimidin-5-yl)-3,4-dihydropyrido[4,3-d]pyrimidin-2(1H)-one] | >10 | >5 | 10 to 30 nM | – | > 200 nM | 30 to 200 nM | – | – | > 200 nM | – | – | – | – | – | – | – | – |
| COc1cc(OC)c(F)c(N2Cc3cnc(-c4cn(C)nc4C)cc3N(c3cc(F)cc(F)c3)C2=O)c1F [Example 103, 3-(2,6-difluoro-3,5-dimethoxyphenyl)-1-(3,5-difluorophenyl)-7-(1,3-dimethyl-1H-pyrazol-4-yl)-3,4-dihydropyrido[4,3-d]pyrimidin-2(1H)-one] | >3 | >5 | 10 to 30 nM | 30 to 200 nM | 30 to 200 nM | 10 to 30 nM | – | – | – | – | – | – | – | – | – | – | – |
| COc1cc(OC)c(F)c(N2Cc3cnc(-c4cn(C)nc4C)cc3N(c3ccn(C)n3)C2=O)c1F [Example 100, 3-(2,6-difluoro-3,5-dimethoxyphenyl)-7-(1,3-dimethyl-1H-pyrazol-4-yl)-1-(1-methyl-1H-pyrazol-3-yl)-3,4-dihydropyrido[4,3-d]pyrimidin-2(1H)-one] | >5 | >5 | 10 to 30 nM | 30 to 200 nM | 30 to 200 nM | 10 to 30 nM | – | – | – | – | – | – | – | – | – | – | – |
| COc1cc(OC)c(F)c(N2Cc3cnc(-c4cncc(C#N)c4)cc3C3(CC3)C2=O)c1F [Example 8, 5-(2′-(2,6-difluoro-3,5-dimethoxyphenyl)-3′-oxo-2′,3′-dihydro-1′H-spiro[cyclopropane-1,4′-[2,7]naphthyridine]-6′-yl)nicotinonitrile] | >5 | – | 30 to 200 nM | – | 10 to 30 nM | > 200 nM | 30 to 200 nM | > 200 nM | > 200 nM | >50 | >10 | >10 | >50 | >10 | >10 | 10 to 30 nM | > 200 nM |

Results, then the compound that gave them:

| FGFR1/FGFR3 IC50 ratio (FGFR3 enzyme; pre-incubated for 4 hours) | FGFR4/FGFR3 IC50 ratio (FGFR3 enzyme; pre-incubated for 4 hours) | IC50 (FGFR3 enzyme; pre-incubated for 4 hours) | IC50 (FGFR1; [1]) | IC50 (FGFR4; pre-incubated for 4 hours) | IC50 (FGFR2; pre-incubated for 4 hours) | IC50 (FGFR3 enzyme; [2]) | IC50 (FGFR1; [3]) | IC50 (FGFR1; [4]) | FGFR1/FGFR4 IC50 ratio (FGFR4; [2]) | FGFR2/FGFR4 IC50 ratio (FGFR4; [2]) | FGFR3/FGFR4 IC50 ratio (FGFR4; [2]) | FGFR1/FGFR4 IC50 ratio (FGFR4; pre-incubated for 4 hours) | FGFR2/FGFR4 IC50 ratio (FGFR4; pre-incubated for 4 hours) | FGFR3/FGFR4 IC50 ratio (FGFR4; pre-incubated for 4 hours) | IC50 (FGFR4; [2]) | IC50 (FGFR2; [2]) | Structure (SMILES) |
| --- | --- | --- | --- | --- | --- | --- | --- | --- | --- | --- | --- | --- | --- | --- | --- | --- | --- |
| >3 | >3 | < 10 nM | 10 to 30 nM | 10 to 30 nM | < 10 nM | – | – | – | – | – | – | – | – | – | – | – | COc1cc(OC)c(F)c(N2Cc3cnc(-c4ccncc4)cc3C3(CC3)C2=O)c1F [Example 185, 2′-(2,6-difluoro-3,5-dimethoxyphenyl)-6′-(pyridin-4-yl)-1′H-spiro[cyclopropane-1,4′-[2,7]naphthyridin]-3′(2′H)-one] |
| >5 | >10 | < 10 nM | 30 to 200 nM | 30 to 200 nM | < 10 nM | – | – | – | – | – | – | – | – | – | – | – | COc1cc(OC)c(F)c(N2Cc3cnc(-c4cn(C)nc4C)cc3N(c3ccc(CC#N)cc3)C2=O)c1F [Example 97, 2-(4-(3-(2,6-difluoro-3,5-dimethoxyphenyl)-7-(1,3-dimethyl-1H-pyrazol-4-yl)-2-oxo-3,4-dihydropyrido[4,3-d]pyrimidin-1(2H)-yl)phenyl)acetonitrile] |
| >3 | >10 | < 10 nM | 10 to 30 nM | 30 to 200 nM | < 10 nM | – | – | – | – | – | – | – | – | – | – | – | CCN1C(=O)N(c2c(F)c(OC)cc(OC)c2F)Cc2cnc(-c3ccc(C4(C#N)CC4)cc3)cc21 [Example 183, 1-(4-(3-(2,6-difluoro-3,5-dimethoxyphenyl)-1-ethyl-2-oxo-1,2,3,4-tetrahydropyrido[4,3-d]pyrimidin-7-yl)phenyl)cyclopropanecarbonitrile] |
| >3 | >5 | < 10 nM | 10 to 30 nM | 30 to 200 nM | < 10 nM | – | – | – | – | – | – | – | – | – | – | – | COc1ccc(N2C(=O)N(c3c(F)c(OC)cc(OC)c3F)Cc3cnc(-c4cn(C)nc4C)cc32)cc1 [Example 104, 3-(2,6-difluoro-3,5-dimethoxyphenyl)-7-(1,3-dimethyl-1H-pyrazol-4-yl)-1-(4-methoxyphenyl)-3,4-dihydropyrido[4,3-d]pyrimidin-2(1H)-one] |
| >5 | >5 | < 10 nM | 30 to 200 nM | 30 to 200 nM | < 10 nM | – | – | – | – | – | – | – | – | – | – | – | COc1cc(OC)c(F)c(N2Cc3cnc(-c4cn(C)nc4C)cc3N(C3(C#N)CC3)C2=O)c1F [Example 91, 1-(3-(2,6-difluoro-3,5-dimethoxyphenyl)-7-(1,3-dimethyl-1H-pyrazol-4-yl)-2-oxo-3,4-dihydropyrido[4,3-d]pyrimidin-1(2H)-yl)cyclopropanecarbonitrile] |
| >5 | >1 | < 10 nM | 10 to 30 nM | < 10 nM | < 10 nM | – | – | – | – | – | – | – | – | – | – | – | COc1cc(OC)c(F)c(N2Cc3cnc(-c4cnn(CC5CCCS(=O)(=O)N5)c4)cc3C3(CC3)C2=O)c1F (stereo not shown) [Example 162, 2′-(2,6-difluoro-3,5-dimethoxyphenyl)-6′-{1-[(1,1-dioxido-1,2-thiazinan-3-yl)methyl]-1H-pyrazol-4-yl}-1′H-spiro[cyclopropane-1,4′-[2,7]naphthyridin]-3′(2′H)-one] |
